Residues, ends and D or L forms follow the SMILES beside them.
Experiment: Ocular tissue distribution at equimolar concentration, eye dropping or intravitreal injection (Example 5), ELISA
Type: in vivo, C57BL/6J mice
Source text: This example provides an ocular tissue distribution comparison experiment of the polypeptide eye drops (AJ007 eye drops) in Example 2 with an equimolar concentration of the multifunctional fusion polypeptide VI (HM-1), a multifunctional fusion polypeptide VI preparation (HM-1 preparation, with a polypeptide being HM-1 and a formulation of other excipients being the same as the AJ007 eye drops), a fusion polypeptide AJ007 preparation (TAT-HM-1, with a polypeptide being AJ007 and pure water as a vehicle) after eye dropping, and the multifunctional fusion polypeptide VI (HM-1) after intravitreal injection, which is specifically described below.
Animal grouping: […] C57BL/6J mice were randomly divided into a total of 7 time point groups, including 0 h, 10 min, 1 h, 3 h, 7 h, 12 h, and 24 h, with 2 mice in each group.
Experimental process: All the mice in the eye drop administration groups were administered bilateral eye drops 1 time, with 5 μL of a corresponding drug solution dropped into each eye, while 5 μL of a corresponding drug solution was injected into both eyes in the HM-1 intravitreal injection group. At the 7 time points of 0 h, 10 min, 1 h, 3 h, 7 h, 12 h, and 24 h after the completion of administration, the mice in the corresponding groups were respectively subjected to eyeball removal and blood collection, the collected whole blood was immediately centrifuged at 6,000 rpm for 5 minutes, and then, a supernatant was sucked and stored as a sample to be tested. Additionally, 3 tissue sites, namely the vitreous body, the retina, and the RPE/choroid complex, were isolated from an eyeball under a stereomicroscope, into which PBS was added at 1:10 for dilution, followed by grinding and centrifugation at 12,000 rpm for 5 minutes. A supernatant was sucked to serve as a sample to be tested. Subsequently, the concentration of HM-1 or fusion polypeptide AJ007 in each tissue was detected by an ELISA method.

| maintenance time at the RPE/choroid complex (intravitreal injection) | Compound | maintenance time at the RPE/choroid complex (eye dropping) |
| --- | --- | --- |
|  | C[C@H](NC(=O)CNC(=O)[C@H](CCCNC(=N)N)NC(=O)[C@H](CCCNC(=N)N)NC(=O)[C@H](CCCNC(=N)N)NC(=O)[C@H](CCCNC(=N)N)NC(=O)[C@H](CCC(N)=O)NC(=O)[C@H](CCCNC(=N)N)NC(=O)[C@H](CCCNC(=N)N)NC(=O)[C@H](CCCCN)NC(=O)[C@H](CCCCN)NC(=O)[C@H](CCCNC(=N)N)NC(=O)CNC(=O)[C@@H](N)Cc1ccc(O)cc1)C(=O)N[C@@H](CC(=O)O)C(=O)N[C@@H](CCCNC(=N)N)C(=O)N[C@@H](C)C(=O)NCC(=O)NCC(=O)NCC(=O)NCC(=O)N[C@@H](CCCNC(=N)N)C(=O)NCC(=O)N[C@@H](CC(=O)O)C(=O)O [AJ007] (H-YGRKKRRQRRRRGADRAGGGGRGD-OH; N-terminus and C-terminus assumed) | shorter |
| shorter | C[C@H](NC(=O)CNC(=O)[C@@H](N)CCCNC(=N)N)C(=O)N[C@@H](CC(=O)O)C(=O)N[C@@H](CCCNC(=N)N)C(=O)N[C@@H](C)C(=O)NCC(=O)NCC(=O)NCC(=O)NCC(=O)N[C@@H](CCCNC(=N)N)C(=O)NCC(=O)N[C@@H](CC(=O)O)C(=O)O [HM-1, Arg-Gly-Ala-Asp-Arg-Ala-Gly-Gly-Gly-Gly-Arg-Gly-Asp] (H-RGADRAGGGGRGD-OH; N-terminus and C-terminus assumed) | very short |

Source: patent US20260226108A1, “FUSION POLYPEPTIDE AJ007 AND USE THEREOF” (NANJING ANJI BIOTECHNOLOGY CO, LTD., priority 2023, published 2026)
